Measurements as given in patent US10570104B2, “Metabolically programmed metal chelators and uses thereof” (University of Florida Research Foundation, Incorporated, priority 2015, dated 2020).
“Also recorded” adds a separate entry of the source. Like-named read-outs stand apart in the source and are kept apart here.

Key:
[1] = log Papp, octanol/TRIS buffer pH 7.4, shake flask direct method; assay type: physicochemical; conditions: not told
Excerpt: The redesign of 2 was predicated on the observation that both ligands 2 and 3 were orally active iron chelators in rodents and primates (Table 1), and that when the 4′-(OH) of 2 was methylated, providing (S)-4,5-dihydro-2-(2-hydroxy-4-methoxyphenyl)-4-methyl-4-thiazolecarboxylic acid^43 [(S)-4′-(CH3O)-DADFT, 4], there was a remarkable enhancement in both ICE and lipophilicity (log Papp). The log Papp data are expressed as the log of the fraction of the chelator seen in the octanol layer; measurements were done in TRIS buffer, pH 7.4, using a “shake flask” direct method.^49 The more negative the log Papp, the less chelator is in the octanol phase, the less lipophilic. Unfortunately, the increase in ICE of 4 came with a concomitant increase in toxicity.^50 Thus, the delicate balance between the increase in ICE and toxicity with enhanced lipophilicity needed to be understood and exploited.

[2] = po, historical, cited from earlier work
[3] = po, cited from earlier work; for Rodent ICE (%): historical
[4] = cited from earlier work
[5] = rats, sc, 300 mol/kg (so in the source); liver; 2 hours post drug; cited from earlier work
[6] = even when administered b.i.d.; cited from earlier work
[7] = rats, cited from earlier work
[8] = Tissue distribution/metabolism of chelators in rats given sc (HPLC); assay type: in vivo, Sprague-Dawley rats; conditions: for metabolism of 7 to 8 and 9 in tissues: sc 7, HPLC of tissues
[9] = as above; assay type: in vivo, Sprague-Dawley rats
Protocol: Collection of Chelator Tissue Distribution Samples from Rodents. Male Sprague-Dawley rats (250-350 g) were given a single subcutaneously injection of the monosodium salts of 8 and 11 prepared as described above at a dose of […]. At times 0.5, 1, 2, 4 and 8 hours after dosing (n=3 rats per time point), the animals were euthanized by exposure to CO2 gas. Blood was obtained via cardiac puncture into vacutainers containing sodium citrate. The blood was centrifuged, and the plasma was separated for analysis. The liver, kidney, heart, and pancreas were removed from the animals and frozen.
Tissue Analytical Methods. Tissue samples of animals treated with 8 were prepared for HPLC analysis by homogenizing them in H2O at a ratio of 1:1 (w/v). Then, as a rinse, CH3OH at a ratio of 1:3 (w/v) was added, and the mixture was stored at −20° C. for 30 min. This homogenate was centrifuged. The supernatant was diluted with H2O, vortexed, and filtered with a 0.2 μm membrane. Analytical separation was performed on a Supelco Discovery RP Amide C16 HPLC system with UV detection at 310 nm as described previously.^44,75 Mobile phase and chromatographic conditions were as follows: solvent A, 5% CH3CN/95% buffer (25 mM KH2PO4+2.5 mM 1-octanesulfonic acid, pH 3.0); solvent B, 60% CH3CN/40% buffer.
Tissue samples of animals treated with 11 were prepared for HPLC analysis by homogenizing them in 0.5 N HClO4 at a ratio of 1:3 (w/v). Then, as a rinse, CH3OH at a ratio of 1:3 (w/v) was added, and the mixture was stored at −20° C. for 30 min. This homogenate was centrifuged. The supernatant was diluted with 95% buffer (25 mM KH2PO4, pH 3.0)/5% CH3CN, vortexed, and filtered with a 0.2 μm membrane. Analytical separation was performed on a Supelco Ascentis Express RP-Amide HPLC system with UV detection at 310 nm as described previously. Mobile phase and chromatographic conditions were as for 8.
Ligand concentrations were calculated from the peak area fitted to calibration curves by nonweighted least-squares linear regression with Shimadzu Class-VP 7.4 software.

[10] = Chelator-induced iron clearance (ICE) in iron-overloaded Cebus apella primates; assay type: in vivo, Cebus apella monkeys; conditions: 75 μmol/kg, monosodium salt
Protocol: Iron Loading of Cebus apella Monkeys. The monkeys (3.5-6.5 kg) were iron overloaded with intravenous iron dextran as specified in earlier publications to provide about 500 mg of iron per kg of body weight; the serum transferrin iron saturation rose to between 70 and 80%.^38,40 At least 20 half-lives, 60 days, elapsed before any of the animals were used in experiments evaluating iron-chelating agents.
Primate Fecal and Urine Samples. Fecal and urine samples were collected at 24 hours intervals and processed as described previously^38,40,74 Briefly, the collections began 4 days prior to the administration of the test drug and continued for an additional 5 days after the drug was given. Iron concentrations were determined by flame absorption spectroscopy as presented in other publications.^38′^40
Drug Preparation and Administration.
Calculation of Chelator Iron Clearing Efficiency (ICE).

[11] = for Rat ICE (%): 300 μmol/kg, monosodium salt
Protocol: Sample collection and handling are as previously described.^38,40
Drug Preparation and Administration. In the iron clearing experiments, the rats were given 8-14 orally at a dose of 300 μmol/kg. […] The chelators were administered as their monosodium salts (prepared by the addition of 1 equiv of NaOH to a suspension of the free acid in distilled water).
Calculation of Chelator Iron Clearing Efficiency (ICE). The term “ICE” is used as a measure of the amount of iron excretion induced by a chelator. The ICE, expressed as a percent, is calculated as (ligand-induced iron excretion/theoretical iron excretion)×100. […] The theoretical iron outputs of the chelators were generated on the basis of a 2:1 ligand:iron complex. The efficiencies in the rats and monkeys were calculated as set forth elsewhere.^37 Data are presented as the mean±the standard error of the mean; p-values were generated via a one-tailed Student's t-test in which the inequality of variances was assumed, and a p-value of <0.05 was considered significant.

[12] = 10-day toxicity trial of (S)-4′-(HO)-DADFT-HXA (11) in rats
Protocol: Note that this dose is equivalent to 100 mg/kg/day of DFT (1) as its sodium salt. The rats were housed in individual metabolic cages and were weighed each day. […] The rats were fasted overnight and were given the chelator first thing in the morning. […] The animals were euthanized one day post drug (day 11). […] Additional age-matched rats served as untreated controls for the CBC and serum chemistries and histopathology. No urine was collected from these animals. The studies were performed on rats with normal iron stores.
Aten-day toxicity trial of 11 was carried out in male Sprague-Dawley rats. The animals were housed in individual metabolic cages. […] Note that this dose is equivalent to 100 mg/kg/day of DFT (1) as its sodium salt. Urine was collected from the metabolic cages at 24-hour intervals and assessed for its Kim-1 content. The studies were performed on rats with normal iron stores; each animal served as its own control. Additional age-matched rats served as untreated controls for the CBC and serum chemistry assessments and histopathology.

[13] = 300 μmol/kg, 48 hour sample collection period
[14] = treated rats, one day post drug, 384 μmol/kg/day po x 10 days

## C[C@]1(C(=O)O)CSC(c2ccc(O)cc2O)=N1 [Compound 2, (S)-2-(2,4-dihydroxyphenyl)-4,5-dihydro-4-methyl-4-thiazolecarboxylic acid]
[1]
  Log Papp: −1.05
[2]; 150 μmol/kg
  Primate ICE (%): 16.8±7.2%
[3]; 300 μmol/kg
  Rodent ICE (%): 1.1±0.8%
[4]; 5, 10, or 15 mg/kg/day once daily for up to 12 weeks
  tolerability in patients: well tolerated
[4]; twice daily 12.5 mg/kg (25 mg/kg/d), three patients after 4-5 weeks
  renal toxicity in patients: unacceptable renal toxicity

## COc1ccc(C2=N[C@@](C)(C(=O)O)CS2)c(O)c1 [Compound 4, (S)-4,5-dihydro-2-(2-hydroxy-4-methoxyphenyl)-4-methyl-4-thiazolecarboxylic acid]
[1]
  Log Papp: −0.70
[5]
  proportion of administered compound cleaved to its hydroxy metabolite (2 or 3): about 30%
[2]; 150 μmol/kg
  Primate ICE (%): 24.4 ± 10.8%
[3]; 300 μmol/kg
  Rodent ICE (%): 6.6 ± 2.8%

## COCCOCCOCCOc1ccc(C2=N[C@@](C)(C(=O)O)CS2)c(O)c1 [Compound 5, (S)-4,5-dihydro-2-[2-hydroxy-4-(3,6,9-trioxadecyloxy)phenyl]-4-methyl-4-thiazolecarboxylic acid]
[1]
  Log Papp: −1.10
[5]
  proportion of administered compound cleaved to its hydroxy metabolite (2 or 3): 2%
[2]; 150 μmol/kg
  Primate ICE (%): 25.4 ± 7.4%
[3]; 300 μmol/kg
  Rodent ICE (%): 5.5 ± 1.9%
[6]
  renal toxicity: no renal toxicity

## COCCOCCOCCOc1cccc(C2=N[C@@](C)(C(=O)O)CS2)c1O [Compound 6, (S)-4,5-dihydro-2-[2-hydroxy-3-(3,6,9-trioxadecyloxy)phenyl]-4-methyl-4-thiazolecarboxylic acid]
[1]
  Log Papp: −1.22
[5]
  proportion of administered compound cleaved to its hydroxy metabolite (2 or 3): 2.6%
[2]; 150 μmol/kg
  Primate ICE (%): 23.0 ± 4.1%
[3]; 150 μmol/kg, compound 6 dose response
  ICE: 18.7±2.9%
[3]; 150 μmol/kg
  iron decorporated: 0.782 ± 0.121 mg/kg
[3]; [13]
  Rodent ICE (%): 10.6±4.4%
[3]; 300 μmol/kg
  quantity of iron excreted: 0.887 ± 0.367 mg/kg
[6]
  renal toxicity: no renal toxicity

## COCCOCCOc1ccc(C2=N[C@@](C)(C(=O)O)CS2)c(O)c1 [Compound 7, (S)-4,5-dihydro-2-[2-hydroxy-4-(3,6-dioxaheptyloxy)phenyl]-4-methyl-4-thiazolecarboxylic acid]
[1]
  Log Papp: −0.89
[7]; extensive tissues
  histopathology: no drug-related abnormalities were identified
[7]; po s.i.d. 28 d (56.9-170.7 μmol/kg/day), s.i.d. 10 d (384 μmol/kg/d), b.i.d. 7 d (474 μmol/kg/d)
  CBC and serum chemistries: No drug-related abnormalities were found
[7]; same regimens
  BUN and SCr levels: within the normal range
[7]; up to 28 days
  urinary Kim-1 excretion: did not elicit any increases in urinary Kim-1 excretion
[2]; 75 μmol/kg, as monosodium salt
  Primate ICE (%): 28.7±12.4%
[2]; 75 μmol/kg, in capsules
  Primate ICE (%): 26.3 ± 9.9%
[8]; sc 7
  cleavage of 7 to 2: no cleavage to 2; also recorded: does not sustain metabolic cleavage at the 4′-(HO) to yield 2
[8]
  metabolism of 7 to 8 and 9 in tissues: cleavage of the terminal methyl of 7 to the corresponding alcohol 8 did occur
[3]; [13]
  Rodent ICE (%): 26.7 ± 4.7%
[9]; sc 7, plasma, 0.5 hour
  share of total drug concentration: 95%

## C[C@]1(C(=O)O)CSC(c2ccc(OCCOCC(=O)O)cc2O)=N1 [Compound 9, (S)-4,5-dihydro-2-[2-hydroxy-4-(4-carboxy-3-oxabutyloxy)phenyl]-4-methyl-4-thiazolecarboxylic acid]
[1]
  Log Papp: −1.63
[8]
  metabolism of 7 to 8 and 9 in tissues: not detected
[9]; sc 8, 300 μmol/kg, liver, 1 hour
  share of drug (parent+metabolite): 59%
[9]; sc 8, 300 μmol/kg, liver, 8 hours
  detection in liver: no metabolite 9 remains
[9]; sc 8, 300 μmol/kg, plasma, 2 hour post dosing
  share of drug (parent+metabolite): 88%
[9]; sc 8, 300 μmol/kg, plasma, 8 hour
  detection in plasma: Neither the parent 8 nor the metabolite 9 was found at the 8 hour time point
[10]; po
  Cebus ICE (%): 1.7±1.4%
[10]; sc
  Cebus ICE (%): 17.4±9.7%
[11]; po
  Rat ICE (%): 6.2 ± 1.7%
[11]; sc
  Rat ICE (%): 11.3 ± 3.4%

## C[C@]1(C(=O)O)CSC(c2ccc(OCCCCCCO)cc2O)=N1 [Compound 11, (S)-4,5-dihydro-2-[2-hydroxy-4-(6-hydroxyhexyloxy)phenyl]-4-methyl-4-thiazolecarboxylic acid]
[1]
  Log Papp: 0.21
[9]; sc 11, 300 μmol/kg
  conversion of 11 to 12-14: Significant conversion of 11→12-14 was found in all of the tissues examined; also recorded: quickly converted to the corresponding hydrophilic metabolites; also recorded: quickly converted to the corresponding hydrophilic acids 12, 13, and 14; also recorded: very quickly converted to the corresponding acid (12)
[9]; sc 11, heart, 0.5 hour
  tissue concentration: 26 nmol/g wet weight
[9]; sc 11, kidney
  detection in kidney: trace amounts 0.5 hour post drug
[9]; sc 11, liver
  detection in liver: not found in the liver at any of the time points
[9]; sc 11, pancreas, 0.5 hour
  tissue concentration: < 5 nmol/g wet weight
[9]; sc 11, plasma
  detection in plasma: no longer detectable
[9]; sc 11, plasma, 0.5 hour
  share of total (parent+metabolites): 22%
[10]; po
  Cebus ICE (%): 21.9±3.6%
[11]; po
  Rat ICE (%): 9.9 ± 0.8%
[11]; rats, po
  oral absorption: well absorbed
[11]; rats, po 300 μmol/kg, single dose
  overt toxicity: did not present with any overt toxicity; also recorded: did not display any overt toxicity; also recorded: did not elicit any signs of overt toxicity
[12]; baseline and not exceeded during the 10-day exposure, 384 μmol/kg/day po
  urinary Kim-1 excretion: < 20 ng/kg/24 hours
[12]; extensive tissues (25/rat), 384 μmol/kg/day po x 10 days
  histopathology: did not identify any drug-related abnormalities
[12]; rats, po once daily for 10 days, 384 μmol/kg/day
  survival / overall toxicity: All of the rats treated with 11 survived the exposure to the drug; also recorded: lack of toxicity
[12]; [14]
  BUN: 20 ± 4 mg/dL
  SCr: 0.5 ± 0.1 mg/dL
